IC50 data for ten compounds are collected here from US8080546B2, “Pyrazolo-pyridinone derivatives and methods of use” (Amgen Inc., priority 2007, dated 2011).

The test system of one assay is THP1 cells. The assay is described as follows: Lipopolysaccharide-activated THP1 cell TNF production assay (THP1 cell based). The following applies: Homo sapiens, THP-1, LPS-induced TNF-α. The procedure:
Lipopolysaccharide-Activated THP1 Cell TNF Production Assay
THP1 cells are resuspended in fresh THP1 media (RPMI 1640, 10% heat-inactivated FBS, 1XPGS, 1XNEAA, plus 30 μM PME) at a concentration of 1E6/mL. One hundred microliters of cells per well are plated in a polystyrene 96-well tissue culture. One microgram per mL of bacterial LPS is prepared in THP1 media and is transferred to the wells. Test compounds are dissolved in 100% DMSO and are serially diluted 3-fold in a polypropylene 96-well microtiter plate (drug plate). HI control and LO control wells contain only DMSO. One microliter of test compound from the drug plate followed by 10 μL of LPS are transferred to the cell plate. The treated cells are induced to synthesize and secrete TNF-α at 37° C. for 3 h. Forty microliters of conditioned media are transferred to a 96-well polypropylene plate containing 110 μL of ECL buffer (50 mM Tris-HCl pH 8.0, 100 mM NaCl, 0.05% Tween 20, 0.05% NaN3 and 1% FBS) supplemented with 0.44 nM MAB610 monoclonal Ab (R&D Systems), 0.34 nM ruthenylated AF210NA polyclonal Ab (R&D Systems) and 44 μg/mL sheep anti-mouse M280 Dynabeads (Dynal). After a 2 h incubation at room temperature with shaking, the reaction is read on the ECL M8 Instrument (IGEN Inc.). A low voltage is applied to the ruthenylated TNF-α immune complexes, which in the presence of TPA (the active component in Origlo), results in a cyclical redox reaction generating light at […]. The amount of secreted TNF-α in the presence of compound compared with that in the presence of DMSO vehicle alone (HI control) is calculated using the formula: % control (POC)=(cpd−average LO)/(average HI−average LO)*100. Data (consisting of POC and inhibitor concentration in μM) is fitted to a 4-parameter equation (y=A+((B−A)/(1+((x/C)^D))), where A is the minimum y (POC) value, B is the maximum y (POC), C is the x (cpd concentration) at the point of inflection and D is the slope factor) using a Levenburg-Marquardt non-linear regression algorithm.

In a further assay the target is p38 (Homo sapiens, UniProt Q16539). Put plainly: p38 in-vitro HTRF enzyme assay. It is filed as biochemical. The following applies: recombinant human enzyme, read-out: p38 enyme HTRF assay IC50. The procedure:
p38 In-Vitro HTRF Enzyme Assay
The compounds of the invention can be tested for their respective affinities for the p38 protein using a conventional p38 in-vitro enzyme activity assay. For example, a P38-alpha HTRF assay may be used to measure the protein's in-vitro phosphorylation activity, and the data analyzed using time resolved fluorimetry techniques (FRET). A p38 HTRF assay is as follows. The kinase reaction buffer for p38α, p38β, p38δ and p38γ HTRF assays consists of 50 mM Tris-pH 7.5, 5 mM MgCl2, 0.1 mg/mL BSA, 100 μM Na3VO4 and 0.5 mM DTT. The HTRF detection buffer contains 100 mM HEPES-pH 7.5, 100 mM NaCl, 0.1% BSA, 0.05% Tween-20, and 10 mM EDTA. Each compound was dissolved in 100% DMSO and serially diluted (3 fold, 10 point) in a polypropylene 96-well microtiter plate (drug plate). The final starting concentration of the compound in the p38α and p38β enzymatic assays was about 1 μM. The final starting concentration of each compound in the p38δ and p38γ enzymatic assays was about 10 μM. The p38α, p38β, p38δ and p38γ kinase reactions were carried out in a polypropylene 96-well black round bottom assay plate in total volume of 30 μL kinase reaction buffer. Appropriate concentration of purified and activated enzyme (recombinant human) was mixed with indicated concentration of ATP and 100 nM GST-ATF2-Avitag, in the presence or absence (HI control) of each compound. In the absence of enzyme, the background was measured as LO control. HI controls and LO controls contained only DMSO. The reaction was allowed to incubate for 1 hour at RT. […] After 60 minutes incubation at room temperature, the assay plate was read in a Discovery Plate Reader. […] The resulting data was analyzed by taking the proportion of substrate phosphorylated in the kinase reaction in the presence of each individual compound and comparing it with that phosphorylated in the presence of DMSO vehicle alone (HI control). The data was calculated using the formula: % control (POC)=(compound−average LO)/(average HI−average LO)*100. […] All results were expressed as the mean±the standard error of the mean. Data acquisition and non-linear regression algorithms were performed using Activity Base v5.2 and XLfit software v4.1 respectively. Additional assay information may be obtained in Park Y W, Cummings R T, Wu L, et al. Homogeneous Proximity Tyrosine Kinase Assays Scintillation Proximity Assay versus Homogeneous Time-Resolved Fluorescence. Analytical Biochemistry.
Background: Time-resolved FRET reads energy transfer from a long-lived donor to a nearby acceptor.

The next assay has as its system IL-1. The assay is described as follows: LPS induced IL-1 cell based assay (LPS-activated monocytes). The following applies: Homo sapiens, Monocyte. The procedure:
Lipopolysaccharide-Activated Monocyte TNF Production Assay
Test compounds were evaluated in vitro for the ability to inhibit the production of TNF by monocytes activated with bacterial lipopolysaccharide (LPS). Fresh residual source leukocytes (a byproduct of plateletpheresis) were obtained from a local blood bank, and peripheral blood mononuclear cells (PBMCs) were isolated by density gradient centrifugation on Ficol-Paque Plus (Pharmacia). PBMCs were suspended at 2×10^6/mL in DMEM supplemented to contain 2% FCS, 10 mM, 0.3 mg/mL […], 100 U/mL penicillin G and […] streptomycin sulfate (complete media). Cells were plated into Falcon flat bottom, 96 well culture plates (200 μL/well) and cultured overnight at 37° C. and 6% CO2. Non-adherent cells were removed by washing with 200 μl/well of fresh medium. Wells containing adherent cells (˜70% monocytes) were replenished with 100 μL of fresh medium.
Preparation of Test Compound Stock Solutions
Test compounds were dissolved in […]. Compound stock solutions were prepared to an initial concentration of […]. Stocks were diluted initially to 20-200 μM in complete media. Nine two-fold serial dilutions of each compound were then prepared in complete medium.
Treatment of Cells with Test Compounds and Activation of TNF Production with Lipopolysaccharide
One hundred microliters of each test compound dilution were added to microtiter wells containing adherent monocytes and 100 μL complete medium. Monocytes were cultured with test compounds for 60 min at which time 25 μL of complete medium containing 30 ng/mL lipopolysaccharide from E. coli K532 were added to each well. Cells were cultured an additional 4 hrs. Culture supernatants were then removed and TNF presence in the supernatants was quantified using an ELISA. […]
Standard curve data were fit to a second order polynomial and unknown TNF-α concentrations determined from their OD by solving this equation for concentration. TNF concentrations were then plotted vs. test compound concentration using a second order polynomial. This equation was then used to calculate the concentration of test compounds causing a 50% reduction in TNF production.
Compounds of the invention can also be shown to inhibit LPS-induced release of IL-1β, IL-6 and/or IL-8 from monocytes by measuring concentrations of IL-1β, IL-6 and/or IL-8 by methods well known to those skilled in the art. […] Thus, the compounds of the invention may lower elevated levels of TNF-α, IL-1, IL-6, and IL-8 levels. Reducing elevated levels of these inflammatory cytokines to basal levels or below is favorable in controlling, slowing progression, and alleviating many disease states.

Read-outs that look alike come from different tables or passages of the source.

Sequence of p38 (Q16539 whole entry): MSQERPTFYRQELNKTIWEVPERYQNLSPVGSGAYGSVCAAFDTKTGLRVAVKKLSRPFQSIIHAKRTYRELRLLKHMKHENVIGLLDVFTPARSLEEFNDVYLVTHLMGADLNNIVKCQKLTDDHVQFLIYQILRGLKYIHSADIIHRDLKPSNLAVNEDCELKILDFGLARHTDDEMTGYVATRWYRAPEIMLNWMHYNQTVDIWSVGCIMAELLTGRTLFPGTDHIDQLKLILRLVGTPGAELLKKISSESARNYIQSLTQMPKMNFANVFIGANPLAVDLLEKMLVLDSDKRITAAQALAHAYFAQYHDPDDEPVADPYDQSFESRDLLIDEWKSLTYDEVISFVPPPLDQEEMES

As to `Cc1ccc(C(=O)NC2CC2)cc1Nc1cc(=O)n(C)c2c1cnn2-c1cccc(F)c1` [Example 4, N-cyclopropyl-3-((1-(3-fluorophenyl)-7-methyl-6-oxo-6,7-dihydro-1H-pyrazolo[3,4-b]pyridin-4-yl)amino)-4-methylbenzamide], the IC50 in the assay on THP1 cells (range symbols), at p38 (range symbols) and in the assay on IL-1 (range symbols) was less than 25 nM throughout.
Turning to `Cc1ccc(C(=O)NC2CC2)cc1Nc1cc(=O)n(C)c2c1cnn2-c1cc(F)ccc1F` [Example 20, N-cyclopropyl-3-((1-(2,5-difluorophenyl)-7-methyl-6-oxo-6,7-dihydro-1H-pyrazolo[3,4-b]pyridin-4-yl)amino)-4-methylbenzamide], the half-inhibitory concentration (IC50) in the assay on THP1 cells (range symbols), on p38 (range symbols) and in the assay with IL-1 (range symbols) was less than 25 nM each time.
For `Cn1c(=O)cc(Nc2cc(C(=O)NC3CC3)ccc2Cl)c2cnn(-c3ccc(F)cc3F)c21` [Example 13, 4-chloro-N-cyclopropyl-3-((1-(2,4-difluorophenyl)-7-methyl-6-oxo-6,7-dihydro-1H-pyrazolo[3,4-b]pyridin-4-yl)amino)benzamide], the IC50 in the assay with THP1 cells (range symbols) and with IL-1 (range symbols) was less than 25 nM throughout.
With `Cc1ccc(C(=O)NC2CC2)cc1Oc1cc(=O)n(C)c2c1cnn2-c1c(F)cccc1F` [Example 16, N-cyclopropyl-3-((1-(2,6-difluorophenyl)-7-methyl-6-oxo-6,7-dihydro-1H-pyrazolo[3,4-b]pyridin-4-yl)oxy)-4-methylbenzamide], the IC50 (in general, the concentration at which inhibition is half-maximal) in the assay with THP1 cells (range symbols) is less than 25 nM; at p38 (range symbols), less than 25 nM; with IL-1 (range symbols), 25 to 99 nM.
Consider `Cn1c(=O)cc(Oc2cc(C(=O)NC3CC3)ccc2Cl)c2cnn(-c3cc(F)ccc3F)c21` [Example 26, 4-chloro-N-cyclopropyl-3-((1-(2,5-difluorophenyl)-7-methyl-6-oxo-6,7-dihydro-1H-pyrazolo[3,4-b]pyridin-4-yl)oxy)benzamide], for which the values for the concentration for half-maximal inhibition (IC50) in the assay on THP1 cells (actual values) and in the assay with IL-1 (actual values) were 8.2 nM and 101 nM, respectively.
Take `Cn1c(=O)cc(Nc2ccc(F)cc2F)c2cnn(-c3ccc(F)cc3F)c21` [Example 9, 1-(2,4-difluorophenyl)-4-((2,4-difluorophenyl)amino)-7-methyl-1,7-dihydro-6H-pyrazolo[3,4-b]pyridin-6-one]: the IC50 with THP1 cells (range symbols) was 250 to 999 nM; at p38 (range symbols), 1000 to 5000 nM; with IL-1 (range symbols) it was 1000 to 5000 nM.
With `Cc1ccc(C(=O)NC2CC2)cc1Oc1cc(=O)n(C)c2c1cnn2-c1ccc(F)cc1F` [Example 19, N-cyclopropyl-3-((1-(2,4-difluorophenyl)-7-methyl-6-oxo-6,7-dihydro-1H-pyrazolo[3,4-b]pyridin-4-yl)oxy)-4-methylbenzamide], the IC50 was less than 25 nM in the assay with THP1 cells (range symbols), less than 25 nM on p38 (range symbols) and 25 to 99 nM with IL-1 (range symbols).
For the compound `CONC(=O)c1ccc(C)c(Nc2cc(=O)n(C)c3c2cnn3-c2ccc(F)cc2F)c1` [Example 30, 3-((1-(2,4-difluorophenyl)-7-methyl-6-oxo-6,7-dihydro-1H-pyrazolo[3,4-b]pyridin-4-yl)amino)-N-methoxy-4-methylbenzamide], the IC50 was found to be 0.6 nM in the assay on THP1 cells (actual values), 1.6 nM on p38 (actual values) and 3.8 nM in the assay on IL-1 (actual values).
Consider `Cc1ccc(C(=O)NC(C)(C)C)cc1Nc1cc(=O)n(C)c2c1cnn2-c1ccc(F)cc1F` [Example 25, N-tert-butyl-3-((1-(2,4-difluorophenyl)-7-methyl-6-oxo-6,7-dihydro-1H-pyrazolo[3,4-b]pyridin-4-yl)amino)-4-methylbenzamide], for which the IC50 in the assay with THP1 cells (range symbols) lay within 25 to 99 nM; in the assay with IL-1 (range symbols), 100 to 249 nM.
For `Cc1ccc(C(=O)NC2CC2)cc1Nc1cc(=O)n(C)c2c1cnn2-c1ccc(F)cc1F` [Example 14, N-cyclopropyl-3-((1-(2,4-difluorophenyl)-7-methyl-6-oxo-6,7-dihydro-1H-pyrazolo[3,4-b]pyridin-4-yl)amino)-4-methylbenzamide], the 50% inhibitory concentration (IC50) in the assay on THP1 cells (range symbols) and in the assay on IL-1 (range symbols) was less than 25 nM each time.
